Reference: ChEMBL document CHEMBL1124277, “Leukotriene receptor antagonists. 4. Synthesis and leukotriene D4/E4 receptor antagonist activity of 4-(alkyl)acetophenone derivatives” (J Med Chem, 1988)

Tests used:
[1] = molecular target: T1, Cysteinyl leukotriene receptor 1 (Cavia porcellus) (UniProt Q2NNR5); test: Dissociation constant for leukotriene antagonist (compound) on Cysteinyl leukotriene D4 receptor in guinea pig ileum was determined; type: functional, tissue-based
T1 sequence (whole entry): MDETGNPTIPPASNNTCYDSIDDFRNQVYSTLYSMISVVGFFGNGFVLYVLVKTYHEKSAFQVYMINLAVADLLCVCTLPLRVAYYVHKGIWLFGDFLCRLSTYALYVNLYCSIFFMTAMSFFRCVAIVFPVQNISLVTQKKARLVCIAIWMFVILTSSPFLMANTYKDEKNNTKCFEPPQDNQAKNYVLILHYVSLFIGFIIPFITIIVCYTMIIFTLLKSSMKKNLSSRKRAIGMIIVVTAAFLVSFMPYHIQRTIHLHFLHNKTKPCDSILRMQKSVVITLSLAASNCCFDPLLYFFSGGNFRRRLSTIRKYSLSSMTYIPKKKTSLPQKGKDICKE

[2] = molecular target: T1, Cysteinyl leukotriene receptor 1 (Cavia porcellus); test: Dissociation constant for leukotriene antagonist (compound) on LTE4 receptor in guinea pig ileum was determined; type: functional, tissue-based

CCCc1c(OCCCc2nnn[nH]2)ccc(C(C)=O)c1O
pKB [1]: 5.47
pKB [2]: 5.64

CCCc1c(CCCCc2nnn[nH]2)ccc(C(C)=O)c1O
pKB [1]: 6.25
pKB [2]: 6.67

CCCc1c(OCCCCc2nnn[nH]2)ccc(C(C)=O)c1O
pKB [1]: 6.93
pKB [2]: 7.21

CCCc1c(CCCCCc2nnn[nH]2)ccc(C(C)=O)c1O
pKB [1]: 7.08
pKB [2]: 7.5
